Measurements taken from patent US20230284616A1, “FUNGICIDAL COMPOSITIONS” (SYNGENTA CROP PROTECTION AG, priority 2020, published 2023).
Like-named read-outs stand apart in the source and are kept apart here. Numbered stars: 1 amine (or outer) side, 2 acyl side, 3 side chain; on linkers, the order of the positions; unused ones are H or OH. Square brackets hold non-standard residues; d marks the D form. Peptide text beside a SMILES is read from it. ξ: configuration not given here. ξNMeVal(3-OH) = CNC(C(=O)O)C(C)(C)O; NMeF = CN[CH](Cc1ccccc1)C(=O)O; X1 = CCC(C)C(O[*:1])C(=O)[*:2]; NMeV = CN[CH](C(=O)O)C(C)C

Experiments:
[1] = tested on: Botrytis cinerea; assay: Liquid culture test in well plates, Botrytis cinerea (gray mould), Example 1-1; assay type: cell-based; settings: Cyprodinil 0.005 ppm alone, growth inhibition, photometric, 72 hours, read-out: (B) inhibition (%)
Procedure: (§1) Mycelia fragments or conidia suspensions of a fungus, prepared either freshly from liquid cultures of the fungus or from cryogenic storage, are directly mixed into nutrient broth. DMSO solutions of the test compound (max. 10 mg/mL) is diluted with 0.025% Tween20 by factor 50 and 10 µL of this solution is pipetted into a microtiter plate (96-well format). […] The test plates are incubated in the dark at 24° C. and 96% relative humidity (rh). The inhibition of fungal growth is determined photometrically and visually after 3 - 7 days, depending on the pathosystem, and percent antifungal activity relative to the untreated check is calculated.
Conidia of the fungus from cryogenic storage were directly mixed into nutrient broth (PDB potato dextrose broth). After placing a DMSO solution of the test compositions into a microtiter plate (96-well format), the nutrient broth containing the fungal spores was added.

[2] = tested on: Alternaria solani; assay: Liquid culture test in well plates, Alternaria solani (early blight of tomato/potato), Example 1-2; assay type: cell-based
Procedure: as §1
Conidia of the fungus from cryogenic storage were directly mixed into nutrient broth (PDB potato dextrose broth). After placing a DMSO solution of the test compositions into a microtiter plate (96-well format) the nutrient broth containing the fungal spores was added.

[3] = 48 h, read-out: (A) inhibition (%)

Compound | inhibition at 0.005 ppm [1] | inhibition at 0.04 ppm ([2]; Cyprodinil 0.04 ppm alone, 48 hours, read-out: (B) inhibition (%)) | inhibition at 0.01 ppm [2, 3] | inhibition at 0.02 ppm [2, 3] | inhibition at 0.04 ppm [2, 3]
Cc1cc(C2CC2)nc(Nc2ccccc2)n1 [Cyprodinil, cyprodinil, reference compound] | 34% | 35% |  |  | 
CCC(C)C1NC(=O)C2CCCN2C(=O)C(Cc2ccccc2)N(C)C(=O)C(Cc2ccccc2)NC(=O)C(C(C)C)N(C)C(=O)C(C(C)CC)OC(=O)C(C(C)(C)O)N(C)C(=O)C(CC(C)C)NC(=O)C(C(C)C)N(C)C1=O (centres unmarked) [Aureobasidin A] (cyclo([ξNMeVal(3-OH)][X1][NMeV]F[NMeF]PI[NMeV]L); configuration not given here) |  |  | 24% | 31% | 43%
